In the test the target is T1, OX1 (Homo sapiens, UniProt O43613).
T1 construct: expressed in transfected cells; host or cells: CHO (CHO-OX1, kept under selection antibiotic)
T1 sequence (O43613 1-425): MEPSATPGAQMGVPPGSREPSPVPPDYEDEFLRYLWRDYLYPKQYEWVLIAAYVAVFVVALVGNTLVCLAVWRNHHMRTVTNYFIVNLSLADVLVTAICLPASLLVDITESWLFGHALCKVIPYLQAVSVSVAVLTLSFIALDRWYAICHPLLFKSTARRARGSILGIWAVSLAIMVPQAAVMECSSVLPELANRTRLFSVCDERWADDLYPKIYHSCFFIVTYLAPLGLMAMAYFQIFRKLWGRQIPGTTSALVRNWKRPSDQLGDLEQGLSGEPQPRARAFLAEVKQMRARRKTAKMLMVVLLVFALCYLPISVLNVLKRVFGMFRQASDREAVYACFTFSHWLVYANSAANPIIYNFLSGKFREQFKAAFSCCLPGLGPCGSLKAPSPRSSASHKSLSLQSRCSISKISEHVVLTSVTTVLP
The test is described as follows: Orexin receptor cell-based functional assay, [Ca2+]i by FLIPR, CHO-OX1 cells. The conditions noted are these: CHO-OX1 cells, EC90 of OXA. On the procedure:
Measurement of [Ca^2+]i using a FLIPR: CHO—OX1 or CHO—OX2 cells are seeded into black-walled clear-base 384-well plates (Costar) at a density of 20,000 cells per well in F12-K medium supplemented with 10% FBS and selection antibiotic (500 ug/ml G418 or 15 ug/ml Blasticidin) and cultured overnight. The cells are incubated with equal volume of calcium4 loading buffer (Molecular Devices, Inc.) containing 2.5 mM probenecid at 37° C. for 30 min, followed by putative OX1 or OX2 receptor antagonists (dose-range 0.1 nM-10 μM) for another 30 min.
The cells are incubated with equal volume of calcium6 loading buffer (Molecular Devices, Inc.) containing 2.5 mM probenecid at 37° C. for 2 h, followed by test compounds (dose-range 0.1 nM-10 μM) for another 30 min.

Setting [1] is: Table 2, read-out: IC50 Bioactivity OX1.

The structures appear in SMILES notation. Read-outs that look alike come from different tables or passages of the source. Bounds are passed on as bounds.

With `Cc1nc(C(=O)N2C[C@H]3CCC[C@H]3C2CNc2nc3ccccc3o2)c(-c2ccc(F)cc2)s1` (mixture of isomers) [Example 100, (1-((Benzo[d]oxazol-2-ylamino)methyl)hexahydrocyclopenta[c]pyrrol-2(1H)-yl)(5-(4-fluorophenyl)-2-methylthiazol-4-yl)methanone], the IC50 under setting [1] came to 8 nM.

With `Cc1nc(C(=O)N2C[C@H]3CCC[C@H]3C2COc2ccc(C(F)(F)F)cn2)c(-c2ccc(F)cc2)s1` (mixture of isomers) [Example 101, (5-(4-Fluorophenyl)-2-methylthiazol-4-yl)(1-(((5-(trifluoromethyl)pyridin-2-yl)oxy)methyl)hexahydrocyclopenta[c]pyrrol-2(1H)-yl)methanone], under setting [1], the IC50 is 3000 nM.

As for `Cc1nc(C(=O)N2C[C@H]3CCC[C@H]3C2COc2nc3ccccc3o2)c(-c2ccc(F)cc2)s1` (mixture of isomers) [Example 102, (1-((Benzo[d]oxazol-2-yloxy)methyl)hexahydrocyclopenta[c]pyrrol-2(1H)-yl)(5-(4-fluorophenyl)-2-methylthiazol-4-yl)methanone], the IC50 under setting [1] is over 1000 nM.

Regarding `Cc1ccc(-c2cccnc2)c(C(=O)N2CCC[C@@H](C)[C@H]2CNc2ccc(C(F)(F)F)cn2)c1` (racemic) [Example 104, rac-cis-(3-Methyl-2-(((5-(trifluoromethyl)pyridin-2-yl)amino)methyl)piperidin-1-yl) (5-methyl-2-(pyridin-3-yl)phenyl)methanone], the IC50 under setting [1] worked out at 1 nM.

In the case of `Cc1ccc(-c2ccc(C)nc2)c(C(=O)N2CCC[C@@H](C)[C@H]2CNc2ccc(C(F)(F)F)cn2)c1` (racemic) [Example 105, rac-cis-(3-Methyl-2-(((5-(trifluoromethyl)pyridin-2-yl)amino)methyl)piperidin-1-yl)(5-methyl-2-(6-methylpyridin-3-yl)phenyl)methanone], the IC50 under setting [1] is 109 nM.

Take `Cc1ccc(-c2ccncc2)c(C(=O)N2CCC[C@@H](C)[C@H]2CNc2ccc(C(F)(F)F)cn2)c1` (racemic) [Example 106, rac-cis-(3-Methyl-2-(((5-(trifluoromethyl)pyridin-2-yl)amino)methyl)piperidin-1-yl)(5-methyl-2-(pyridin-4-yl)phenyl)methanone]: the IC50 under setting [1] amounted to 40 nM.

With `Cc1ccc(-c2cncnc2)c(C(=O)N2CCC[C@@H](C)[C@H]2CNc2ccc(C(F)(F)F)cn2)c1` (racemic) [Example 107, rac-cis-(3-Methyl-2-(((5-(trifluoromethyl)pyridin-2-yl)amino)methyl)piperidin-1-yl) (5-methyl-2-(pyrimidin-5-yl)phenyl)methanone], the IC50 under setting [1] was 78 nM.

As for `Cc1ccc(-c2ccnn2C)c(C(=O)N2CCC[C@@H](C)[C@H]2CNc2ccc(C(F)(F)F)cn2)c1` (racemic) [Example 108, rac-cis-(3-Methyl-2-(((5-(trifluoromethyl)pyridin-2-yl)amino)methyl)piperidin-1-yl)(5-methyl-2-(1-methyl-1H-pyrazol-5-yl)phenyl)methanone], the IC50 under setting [1] came to 13 nM.

For `Cc1ccc(-c2cnc(N3CCN(C)CC3)nc2)c(C(=O)N2CCC[C@@H](C)[C@H]2CNc2ccc(C(F)(F)F)cn2)c1` (racemic) [Example 109, rac-cis-(3-Methyl-2-(((5-(trifluoromethyl)pyridin-2-yl)amino)methyl)piperidin-1-yl)(5-methyl-2-(2-(4-methylpiperazin-1-yl)pyrimidin-5-yl)phenyl)methanone], the IC50 under setting [1] was over 1000 nM.

As to `Cc1ccc(-c2ccc(N3CCN(C)CC3)nc2)c(C(=O)N2CCC[C@@H](C)[C@H]2CNc2ccc(C(F)(F)F)cn2)c1` (racemic) [Example 110, rac-cis-(3-Methyl-2-(((5-(trifluoromethyl)pyridin-2-yl)amino)methyl)piperidin-1-yl)(5-methyl-2-(6-(4-methylpiperazin-1-yl)pyridin-3-yl)phenyl)methanone], the IC50 under setting [1] is over 1000 nM.

`Cc1ccc(-c2cnn(CCN3CCOCC3)c2)c(C(=O)N2CCC[C@@H](C)[C@H]2CNc2ccc(C(F)(F)F)cn2)c1` (racemic) [Example 111, rac-cis-(3-Methyl-2-(((5-(trifluoromethyl)pyridin-2-yl)amino)methyl)piperidin-1-yl)(5-methyl-2-(1-(2-morpholinoethyl)-1H-pyrazol-4-yl)phenyl)methanone]: the IC50 under setting [1] was over 1000 nM.

Take `Cc1ccc(-c2ncccn2)c(C(=O)N2CCC[C@@H](C)[C@H]2CNc2ccc(C(F)(F)F)cn2)c1` (racemic) [Example 112, rac-cis-(3-Methyl-2-(((5-(trifluoromethyl)pyridin-2-yl)amino)methyl)piperidin-1-yl)(5-methyl-2-(pyrimidin-2-yl)phenyl)methanone]: the IC50 under setting [1] amounted to 17 nM.

Regarding `Cc1ccc(-c2ncco2)c(C(=O)N2CCC[C@@H](C)[C@H]2CNc2ccc(C(F)(F)F)cn2)c1` (racemic) [Example 113, rac-cis-(3-Methyl-2-(((5-(trifluoromethyl)pyridin-2-yl)amino)methyl)piperidin-1-yl)(5-methyl-2-(oxazol-2-yl)phenyl)methanone], the IC50 under setting [1] was found to be 25 nM.

With `Cc1ccc(-n2ccnn2)c(C(=O)N2CCC[C@@H](C)[C@H]2CNc2ccc(C(F)(F)F)cn2)c1` (racemic) [Example 115, rac-cis-(3-Methyl-2-(((5-(trifluoromethyl)pyridin-2-yl)amino)methyl)piperidin-1-yl)(5-methyl-2-(1H-1,2,3-triazol-1-yl)phenyl)methanone], the IC50 under setting [1] amounted to 10 nM.

For `Cc1ccc(-n2ccnc2)c(C(=O)N2CCC[C@@H](C)[C@H]2CNc2ccc(C(F)(F)F)cn2)c1` (racemic) [Example 116, rac-cis-(2-(1H-Imidazol-1-yl)-5-methylphenyl)(3-methyl-2-(((5-(trifluoromethyl)pyridin-2-yl)amino)methyl)piperidin-1-yl)methanone], the IC50 under setting [1] is under 100 nM.

In the case of `Cc1ccc(-n2cncn2)c(C(=O)N2CCC[C@@H](C)[C@H]2CNc2ccc(C(F)(F)F)cn2)c1` (racemic) [Example 117, rac-cis-(3-Methyl-2-(((5-(trifluoromethyl)pyridin-2-yl)amino)methyl)piperidin-1-yl)(5-methyl-2-(1H-1,2,4-triazol-1-yl)phenyl)methanone], under setting [1], the IC50 came to 38 nM.

In the case of `C[C@@H]1CCCN(C(=O)c2ccccc2Oc2ccccc2)[C@@H]1CNc1ccc(C(F)(F)F)cn1` (racemic) [Example 118, rac-cis-(3-Methyl-2-(((5-(trifluoromethyl)pyridin-2-yl)amino)methyl)piperidin-1-yl) (2-phenoxyphenyl)methanone], under setting [1], the IC50 was determined as 262 nM.

`C[C@@H]1CCCN(C(=O)c2ccnn2-c2ccccc2)[C@@H]1CNc1ccc(C(F)(F)F)cn1` (racemic) [Example 119, rac-cis-(3-Methyl-2-(((5-(trifluoromethyl)pyridin-2-yl)amino)methyl)piperidin-1-yl)(1-phenyl-1H-pyrazol-5-yl)methanone]: the IC50 under setting [1] turned out to be 400 nM.

Turning to `Cc1nc(C(=O)N2CCC[C@@H](C)[C@H]2CNc2nccnc2Cl)c(-c2ccc(F)cc2)s1` (racemic) [Example 121, rac-cis-(2-(((3-Chloropyrazin-2-yl)amino)methyl)-3-methylpiperidin-1-yl)(5-(4-fluorophenyl)-2-methylthiazol-4-yl)methanone], the IC50 under setting [1] was over 1000 nM.

Turning to `C[C@@H]1CCCN(C(=O)c2ccccc2OC(F)(F)F)[C@@H]1CNc1ncc(Cl)cn1` (racemic) [Example 122, rac-cis-(2-(((5-Chloropyrimidin-2-yl)amino)methyl)-3-methylpiperidin-1-yl)(2-(trifluoromethoxy)phenyl)methanone], under setting [1], the IC50 was 3500 nM.

Turning to `Cc1nc(C(=O)N2CCC[C@@H](C)[C@H]2CNc2cncc(Cl)n2)c(-c2ccc(F)cc2)s1` (racemic) [Example 123, rac-cis-(2-(((6-Chloropyrazin-2-yl)amino)methyl)-3-methylpiperidin-1-yl)(5-(4-fluorophenyl)-2-methylthiazol-4-yl)methanone], under setting [1], the IC50 turned out to be 3600 nM.

On to `O=C(NCC1C2CCC(CC2)N1C(=O)c1ccccc1-c1ccccc1)c1cccc2cccnc12` (racemic) [Example 140, N-(((1s,4s)-2-([1,1′-Biphenyl]-2-carbonyl)-2-azabicyclo[2.2.2]octan-3-yl)methyl)quinoline-8-carboxamide], for which the IC50 under setting [1] is under 100 nM.

As to `Cc1nc(C(=O)N2CCC[C@H](C)[C@H]2CNc2ccc(C(F)(F)F)cn2)c(-c2ccc(F)cc2)s1` (racemic) [Example A65, rac-trans-(5-(4-Fluorophenyl)-2-methylthiazol-4-yl)(3-methyl-2-(((5-(trifluoromethyl)pyridin-2-yl)amino)methyl)piperidin-1-yl)methanone], under “[Ca2+]i by FLIPR, antagonist dose-range 0.1 nM-10 μM, read-out: OX1”, the IC50 worked out at 7 nM.

In the case of `O=C(NCC1CCC(F)CN1C(=O)c1ccccc1-c1ccccc1)c1cccc2cccnc12` (single isomer, unassigned) [Example 37, N-((1-(Biphenylcarbonyl)-5-fluoropiperidin-2-yl)methyl)quinoline-8-carboxamide], the IC50 under setting [1] is 1 nM.

(Values after patent US9440982B2 (Eolas Therapeutics, Inc., priority 2012, dated 2016).)
